Test results from patent US20080176932A1, “Pharmaceutical Compositions Containing Baicalein And Baicalin With Synergistic Effect In Tumor Treatment” (priority 2005, published 2008).
Like-named read-outs stand apart in the source and are kept apart here.

Tests used:
[1] = system: Murine melanoma cell line B 16; experiment: Solid tumor transplant model, baicalein and baicalin; assay type: in vivo
Procedure: (§1) C57BL/6 female mice (weight approximately 20 g) were used in this study. Murine melanoma cell line B 16 cells, 2×10^6 tumor cells were implanted s.c. into the armpit of each mice after two passenges in vitro cultured. On the next day after implantation, mice were randomly grouped at 10 per group and received 0.1 ml/10 g weight of the drugs. […] The number of mice of each group was 10. Mice were weighed before and post the treatment. Animals were killed on day 15, and the tumors were removed and weighted.

[2] = system: L1210 cells; assay type: in vivo; details: day 1-10; for ILS(%) increase of life span: L1210 mice
Procedure: (§2) L1210 cells on the growth phase were injected at 1×10^5 cells via I.P. into BDF1 female mice (weight approximately 20 g). The next day of implantation, mice were grouped, and received an injection of 0.1 ml/10 g weight of the drug. […] The number of mice of each group was 10. Mice were weighed before and after the treatment. Survival time of each mouse was recorded. The results of changes in increasing of life span of mice were used in assessment of response. The increase of life span was determined as; increase of life span rate=(median survival time of treated animals/median survival time of control animals−1)×100%, the data were analyzed by t-test.

[3] = system: Murine melanoma cell line B 16; experiment: Solid tumor transplant model, baicalein and scutellarin; assay type: in vivo, C57BL/6 female mice; details: for Final Tumor WT. (g) Mean ± SD / Tumor Growth Inhibition %: day 15
Procedure: as §1, with “0.1ml/10” for “0.1 ml/10”

[4] = system: L1210 cells; assay type: in vivo; details: 5-FU 10 mg/kg s.c., day 1-10
Procedure: as §2

[5] = system: Human leukemia cell line HL60; experiment: MTT growth inhibition, baicalein and scutellarin single or combination; assay type: cell-based
[6] = system: Human colon cancer cell line HCT116; experiment: as above; assay type: cell-based
[7] = system: Human breast cancer cell line MCF-7; experiment: as above; assay type: cell-based
Procedure: (§3) Cells were seeded onto 96-well plate at 5×10^3 cells/well, and grown in culture medium containing 10% fetal bovine serum (FBS). […] The viable cell growth was determined by MTT assay after 72-h continuous exposure.
(§4) A CI below 1 is an indication of synergy, while a CI equal to 1 represents addition, and a CI above 1 indicates antagonism.

[8] = system: Human esophagus cancer cell line TE2; experiment: as above; assay type: cell-based
Procedure: as §3, §4

[9] = system: Human prostate cancer cell line PC3; experiment: as above; assay type: cell-based
Procedure: as §3, §4

[10] = system: Human gastric cancer cell line MKN28; experiment: as above; assay type: cell-based
[11] = system: human liver cancer cell line HepG2; experiment: as above; assay type: cell-based
[12] = system: Human hung cancer cell line A549; experiment: as above; assay type: cell-based
[13] = B16 mice, day 15, 5-FU 10 mg/kg s.c., day 1-10
[14] = B16 mice, 5-FU 10 mg/kg s.c., day 1-10
[15] = female, C57BL/6, mouse, in vivo, 15 days
[16] = B16 mice, Sc 25 mg/kg i.p., day 1-10
[17] = B16 mice, Sc 50 mg/kg i.p., day 1-10
[18] = B16 mice, Sc 100 mg/kg i.p., day 1-10
[19] = B16 mice, Sc 200 mg/kg i.p., day 1-10

Compound: O=c1[nH]cc(F)c(=O)[nH]1 [5-FU, 5-fluorouracil, reference compound]
- Final Tumor WT. (g) Mean ± SD [1, 13]: 1.35 ± 0.1 g
- Tumor Growth Inhibition % [1, 13]: 38%
- Weight Change % [1, 14]: <5%
- Number of mice Surviving through 15 days/total number [1, 15]: 10/10
- Number of mice Through surviving 15 days/total number ([2]; 5-FU 10 mg/kg s.c.): 10/10
- ILS(%) increase of life span ([2]; 5-FU 10 mg/kg s.c.): 79%
- Final Tumor WT. (g) Mean ± SD [3, 14]: 1.35 ± 0.1 g
- Tumor Growth Inhibition % [3, 14]: 38%
- Number of mice through 15 days/total number [3, 15]: 10/10
- Number of mice Surviving through 15 days/total number [4]: 10/10
- ILS(%) increase of life span ([4]; L1210 mice): 79%

Compound: O=C(O)[C@H]1O[C@@H](Oc2cc3oc(-c4ccc(O)cc4)cc(=O)c3c(O)c2O)[C@H](O)[C@@H](O)[C@@H]1O [Sc, scutellarin]
- Inhibition of cell growth (%) ([5]; single dose 2.5 μm): 2.25 ± 2.7%
- Inhibition of cell growth (%) ([5]; single dose 5 μm): 8.64 ± 3.2%
- Inhibition of cell growth (%) ([5]; single dose 10 μm): 37 ± 2.2%
- Inhibition of cell growth (%) ([5]; single dose 20 μm): 64.2 ± 2.7%
- Inhibition of cell growth (%) ([5]; single dose 40 μm): 88.5 ± 2.5%
- Inhibition of cell growth (%) ([6]; single dose 2.5 μm): 10.05 ± 2.5%
- Inhibition of cell growth (%) ([6]; single dose 5 μm): 15.1 ± 3%
- Inhibition of cell growth (%) ([6]; single dose 10 μm): 49 ± 2.2%
- Inhibition of cell growth (%) ([6]; single dose 20 μm): 83.7 ± 2.2%
- Inhibition of cell growth (%) ([6]; single dose 40 μm): 95 ± 2.8%
- Inhibition of cell growth (%) ([7]; single dose 2.5 μm): 5 ± 2.5%
- Inhibition of cell growth (%) ([7]; single dose 5 μm): 20.71 ± 3.2%
- Inhibition of cell growth (%) ([7]; single dose 10 μm): 71 ± 2.2%
- Inhibition of cell growth (%) ([7]; single dose 20 μm): 87.5 ± 2.5%
- Inhibition of cell growth (%) ([7]; single dose 40 μm): 95.57 ± 2.2%
- Inhibition of cell growth (%) ([8]; single dose 2.5 μm): 4.7 ± 2.2%
- Inhibition of cell growth (%) ([8]; single dose 5 μm): 12.97 ± 3.1%
- Inhibition of cell growth (%) ([8]; single dose 10 μm): 27.1 ± 2.7%
- Inhibition of cell growth (%) ([8]; single dose 20 μm): 66 ± 2.9%
- Inhibition of cell growth (%) ([8]; single dose 40 μm): 84.62 ± 2.5%
- Inhibition of cell growth (%) ([9]; single dose 2.5 μm): 2 ± 5%
- Inhibition of cell growth (%) ([9]; single dose 5 μm): 18 ± 3%
- Inhibition of cell growth (%) ([9]; single dose 10 μm): 39 ± 7%
- Inhibition of cell growth (%) ([9]; single dose 20 μm): 72 ± 9%
- Inhibition of cell growth (%) ([9]; single dose 40 μm): 91.8 ± 5%
- ILS(%) increase of life span ([2]; Sc 25 mg/kg i.p.): 11.9%
- ILS(%) increase of life span ([2]; Sc 50 mg/kg i.p.): 26%
- ILS(%) increase of life span ([2]; Sc 100 mg/kg i.p.): 37%
- ILS(%) increase of life span ([2]; Sc 200 mg/kg i.p.): 51%
- Number of mice Through surviving 15 days/total number ([2]; Sc 25 mg/kg i.p.): 10/10
- Number of mice Through surviving 15 days/total number ([2]; Sc 50 mg/kg i.p.): 10/10
- Number of mice Through surviving 15 days/total number ([2]; Sc 100 mg/kg i.p.): 10/10
- Number of mice Through surviving 15 days/total number ([2]; Sc 200 mg/kg i.p.): 10/10
- Inhibition of cell growth (%) ([10]; single dose 2.5 μm): 18.83 ± 2.2%
- Inhibition of cell growth (%) ([10]; single dose 5 μm): 21.23 ± 3.5%
- Inhibition of cell growth (%) ([10]; single dose 10 μm): 31.65 ± 2.8%
- Inhibition of cell growth (%) ([10]; single dose 20 μm): 35.34 ± 2.8%
- Inhibition of cell growth (%) ([10]; single dose 40 μm): 75.34 ± 2.7%
- Inhibition of cell growth (%) ([11]; single dose 2.5 μm): 5.2 ± 2.1%
- Inhibition of cell growth (%) ([11]; single dose 5 μm): 7.7 ± 2.3%
- Inhibition of cell growth (%) ([11]; single dose 10 μm): 43.35 ± 2.7%
- Inhibition of cell growth (%) ([11]; single dose 20 μm): 86.1 ± 2.9%
- Inhibition of cell growth (%) ([11]; single dose 40 μm): 88.45 ± 2.5%
- Final Tumor WT. (g) Mean ± SD [3, 16]: 1.81 ± 0.11 g
- Tumor Growth Inhibition % [3, 16]: 17%
- Final Tumor WT. (g) Mean ± SD [3, 17]: 1.72 ± 0.08 g
- Tumor Growth Inhibition % [3, 17]: 21.1%
- Final Tumor WT. (g) Mean ± SD [3, 18]: 1.48 ± 0.12 g
- Tumor Growth Inhibition % [3, 18]: 32.1%
- Final Tumor WT. (g) Mean ± SD [3, 19]: 1.22 ± 0.09 g
- Tumor Growth Inhibition % [3, 19]: 44%
- Number of mice through 15 days/total number [3, 16]: 10/10
- Weight Change % [3, 16]: <5%
- Number of mice through 15 days/total number [3, 17]: 10/10
- Weight Change % [3, 17]: <5%
- Number of mice through 15 days/total number [3, 18]: 10/10
- Weight Change % [3, 18]: <5%
- Number of mice through 15 days/total number [3, 19]: 10/10
- Weight Change % [3, 19]: <5%
- Inhibition of cell growth (%) ([12]; single dose 2.5 μm): 1 ± 2.1%
- Inhibition of cell growth (%) ([12]; single dose 5 μm): 7.7 ± 3.3%
- Inhibition of cell growth (%) ([12]; single dose 10 μm): 32.33 ± 2.7%
- Inhibition of cell growth (%) ([12]; single dose 20 μm): 62.65 ± 2.5%
- Inhibition of cell growth (%) ([12]; single dose 40 μm): 91 ± 2.7%
